pIC50: −log10 of the molar value.
Key:
[1] = molecular target: Beta-1 adrenergic receptor (Homo sapiens, UniProt P08588); test: DRUGMATRIX: Adrenergic beta1 radioligand binding (ligand: [125I] Cyanopindolol); assay type: cell membranes, CHO-K1, Membrane; conditions: cho-k1; Not Active = under 50% inhibition at 10 µM
[2] = molecular target: Delta-type opioid receptor (Homo sapiens, UniProt P41143); assay type: cell membranes, HEK293, Membrane; conditions: hek293; further: in other assays of this panel Not Active means under 50% inhibition at 10 µM
Sequence of Delta-type opioid receptor (P41143 whole entry): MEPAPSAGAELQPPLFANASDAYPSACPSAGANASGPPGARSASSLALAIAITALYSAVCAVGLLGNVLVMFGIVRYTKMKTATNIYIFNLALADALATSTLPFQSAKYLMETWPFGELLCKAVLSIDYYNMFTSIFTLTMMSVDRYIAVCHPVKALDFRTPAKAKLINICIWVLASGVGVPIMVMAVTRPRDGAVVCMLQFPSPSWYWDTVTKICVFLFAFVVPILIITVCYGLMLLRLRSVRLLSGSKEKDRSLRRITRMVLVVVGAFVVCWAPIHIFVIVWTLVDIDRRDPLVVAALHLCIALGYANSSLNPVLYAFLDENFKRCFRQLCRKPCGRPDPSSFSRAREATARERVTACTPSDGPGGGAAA

[3] = molecular target: T1, Neuropeptide Y receptor type 2 (Homo sapiens, UniProt P49146); assay type: cell membranes, Membrane; conditions: kan-ts; further: in other assays of this panel Not Active means under 50% inhibition at 10 µM
T1 sequence (P49146 whole entry): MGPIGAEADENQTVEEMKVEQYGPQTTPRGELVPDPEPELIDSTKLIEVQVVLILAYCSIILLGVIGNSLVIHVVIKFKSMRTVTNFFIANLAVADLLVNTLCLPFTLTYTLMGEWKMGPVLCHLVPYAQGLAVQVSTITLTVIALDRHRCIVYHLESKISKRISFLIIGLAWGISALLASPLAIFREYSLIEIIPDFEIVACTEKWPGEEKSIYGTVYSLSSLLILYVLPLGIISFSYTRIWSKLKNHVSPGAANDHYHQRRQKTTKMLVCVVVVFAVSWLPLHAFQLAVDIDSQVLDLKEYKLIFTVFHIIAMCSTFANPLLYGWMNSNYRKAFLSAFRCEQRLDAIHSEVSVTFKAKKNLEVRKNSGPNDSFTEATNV

Melanocortin receptor 4 = Melanocortin receptor 4 (Homo sapiens, UniProt P32245); assay type: cell membranes, Membrane; conditions: hek293; further: in other assays of this panel Not Active means under 50% inhibition at 10 µM
Sequence of Melanocortin receptor 4 (P32245 whole entry): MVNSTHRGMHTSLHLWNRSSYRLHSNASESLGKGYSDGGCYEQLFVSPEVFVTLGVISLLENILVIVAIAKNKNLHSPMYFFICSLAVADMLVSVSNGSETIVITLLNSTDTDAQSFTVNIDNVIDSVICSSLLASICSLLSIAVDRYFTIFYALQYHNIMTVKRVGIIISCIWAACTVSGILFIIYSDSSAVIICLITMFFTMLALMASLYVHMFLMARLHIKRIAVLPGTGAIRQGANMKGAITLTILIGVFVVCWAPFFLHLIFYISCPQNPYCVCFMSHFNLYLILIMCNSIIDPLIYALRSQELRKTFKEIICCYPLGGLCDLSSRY

[4] = DRUGMATRIX: beta-Lactamase enzyme inhibition (substrate: Nitrocefin); design: species or system Bacillus cereus; conditions: Not Active = under 50% inhibition at 10 µM
[5] = molecular target: Tyrosine-protein kinase Fyn (Homo sapiens, UniProt P06241); test: biochemical; assay type: cell-based, Insect cells; conditions: for pIC50: read-out: IC50;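 on all read-outs here: enzymatic inhibition of Fyn kinase activity measured with Poly(Glu:Tyr) as the phosphorylation substrate; in other assays of this panel Not Active means under 50% inhibition at 10 µM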
Sequence of Tyrosine-protein kinase Fyn (P06241 whole entry): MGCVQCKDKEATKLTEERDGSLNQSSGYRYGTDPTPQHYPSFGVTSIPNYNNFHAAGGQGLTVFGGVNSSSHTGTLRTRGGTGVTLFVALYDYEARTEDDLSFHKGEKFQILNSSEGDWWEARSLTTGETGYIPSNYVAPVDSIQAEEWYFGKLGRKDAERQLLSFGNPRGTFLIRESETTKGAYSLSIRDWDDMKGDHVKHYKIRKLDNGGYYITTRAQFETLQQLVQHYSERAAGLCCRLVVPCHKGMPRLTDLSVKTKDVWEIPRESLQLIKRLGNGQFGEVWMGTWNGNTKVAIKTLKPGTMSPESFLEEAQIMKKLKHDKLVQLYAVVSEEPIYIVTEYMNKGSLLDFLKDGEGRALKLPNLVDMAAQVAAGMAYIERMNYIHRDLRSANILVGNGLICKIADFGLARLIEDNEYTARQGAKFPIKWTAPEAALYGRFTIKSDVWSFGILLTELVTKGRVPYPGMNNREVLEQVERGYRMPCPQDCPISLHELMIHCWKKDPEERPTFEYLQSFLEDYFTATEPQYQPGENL

[6] = molecular target: Protein phosphatase 3 catalytic subunit alpha (Homo sapiens, UniProt Q08209); design: species or system Escherichia coli
[7] = molecular target: Mitogen-activated protein kinase 3 (Homo sapiens, UniProt P27361); test: DRUGMATRIX: Protein Serine/Threonine Kinase, ERK1 enzyme inhibition (substrate: Myelin Basic Protein); design: species or system Escherichia coli; conditions: Not Active = under 50% inhibition at 10 µM; for pIC50: read-out: IC50
Sequence of Mitogen-activated protein kinase 3 (P27361 whole entry): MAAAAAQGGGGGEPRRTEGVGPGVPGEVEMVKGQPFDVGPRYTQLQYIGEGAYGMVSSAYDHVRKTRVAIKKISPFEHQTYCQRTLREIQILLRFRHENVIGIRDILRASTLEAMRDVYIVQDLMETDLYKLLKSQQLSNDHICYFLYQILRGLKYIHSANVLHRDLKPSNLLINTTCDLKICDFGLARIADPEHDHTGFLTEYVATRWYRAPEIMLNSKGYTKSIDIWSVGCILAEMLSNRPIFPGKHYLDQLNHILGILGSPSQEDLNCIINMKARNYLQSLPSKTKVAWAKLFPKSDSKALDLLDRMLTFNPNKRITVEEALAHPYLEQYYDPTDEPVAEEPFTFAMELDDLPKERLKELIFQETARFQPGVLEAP

Sequence of Beta-1 adrenergic receptor (P08588 whole entry): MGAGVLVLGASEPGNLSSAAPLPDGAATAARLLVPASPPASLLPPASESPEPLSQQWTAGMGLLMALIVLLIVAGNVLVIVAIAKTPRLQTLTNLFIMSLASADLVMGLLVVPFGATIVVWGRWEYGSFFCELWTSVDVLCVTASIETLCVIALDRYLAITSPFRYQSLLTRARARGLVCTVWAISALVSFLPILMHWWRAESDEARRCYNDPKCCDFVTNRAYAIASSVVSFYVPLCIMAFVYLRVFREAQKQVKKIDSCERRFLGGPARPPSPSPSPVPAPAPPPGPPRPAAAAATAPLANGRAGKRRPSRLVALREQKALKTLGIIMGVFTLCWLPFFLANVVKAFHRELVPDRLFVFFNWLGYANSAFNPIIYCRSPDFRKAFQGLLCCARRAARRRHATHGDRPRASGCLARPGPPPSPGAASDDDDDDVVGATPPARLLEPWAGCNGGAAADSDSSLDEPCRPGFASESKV

Row | Compound | IC50 [1] | IC50 [2] | IC50 [3] | IC50 (Melanocortin receptor 4) | IC50 [4] | Ki [4] | IC50 ([5]; insect cells) | IC50 [6] | IC50 [7] | pIC50 [7] | pIC50 [5] | Ki [1] | Ki [2] | Ki [3] | Ki (Melanocortin receptor 4) | pIC50 ([5]; insect cells) | Ki [6] | Ki [7]
1 | CCOc1cc(N)c(Cl)cc1C(=O)NCC1CN(Cc2ccc(F)cc2)CCO1 (centres undefined) [MOSAPRIDE] | Not Active | Not Active | Not Active | Not Active | Not Active | Not Active | Not Active | Not Active | Not Active | – | – | – | – | – | – | – | – | –
2 | O=C(c1ccccc1)c1ccc2n1CCC2C(=O)O (centres undefined) [KETOROLAC] | Not Active | Not Active | Not Active | Not Active | Not Active | Not Active | Not Active | Not Active | Not Active | – | – | – | – | – | – | – | – | –
3 | Nc1nc(N)c2nc(-c3ccccc3)c(N)nc2n1 | Not Active | Not Active | Not Active | Not Active | Not Active | Not Active | Not Active | Not Active | Not Active | – | – | – | – | – | – | – | – | –
4 | Oc1ccc(/C=C/c2cc(O)cc(O)c2)cc1 [RESVERATROL] | Not Active | Not Active | Not Active | Not Active | Not Active | Not Active | Not Active | Not Active | Not Active | – | – | – | – | – | – | – | – | –
5 | Cc1ccnc(NS(=O)(=O)c2ccc(N)cc2)n1 [SULFAMERAZINE] | Not Active | Not Active | Not Active | Not Active | Not Active | Not Active | Not Active | Not Active | Not Active | – | – | – | – | – | – | – | – | –
6 | CCN1CCCC1CNC(=O)c1cc(S(N)(=O)=O)ccc1OC (centres undefined) [SULPIRIDE] | Not Active | Not Active | Not Active | Not Active | Not Active | Not Active | Not Active | Not Active | Not Active | – | – | – | – | – | – | – | – | –
7 | O=C1CC[C@@]2(O)[C@H]3Cc4ccc(O)c5c4[C@@]2(CCN3CC2CC2)[C@H]1O5 [NALTREXONE] | Not Active | – | Not Active | Not Active | Not Active | Not Active | Not Active | Not Active | Not Active | – | – | – | – | – | – | – | – | –
8 | CCN(CC)C(=S)SSC(=S)N(CC)CC | Not Active | Not Active | Not Active | Not Active | Not Active | Not Active | Not Active | Not Active | – | 5.82 | – | – | – | – | – | – | – | –
9 | O=C(OC[C@H]1O[C@@H](OC(=O)c2cc(O)c(O)c(OC(=O)c3cc(O)c(O)c(O)c3)c2)[C@H](OC(=O)c2cc(O)c(O)c(OC(=O)c3cc(O)c(O)c(O)c3)c2)[C@@H](OC(=O)c2cc(O)c(O)c(OC(=O)c3cc(O)c(O)c(O)c3)c2)[C@@H]1OC(=O)c1cc(O)c(O)c(OC(=O)c2cc(O)c(O)c(O)c2)c1)c1cc(O)c(O)c(OC(=O)c2cc(O)c(O)c(O)c2)c1 [TANNIC ACID] | Not Active | Not Active | Not Active | Not Active | Not Active | Not Active | – | Not Active | – | 5.39 | 7.66 | – | – | – | – | – | – | –
10 | C=CCc1ccc2c(c1)OCO2 [SAFROLE] | Not Active | Not Active | Not Active | Not Active | Not Active | Not Active | Not Active | Not Active | Not Active | – | – | – | – | – | – | – | – | –
11 | C#C[C@]1(O)CC[C@H]2[C@@H]3[C@H](C)CC4=C(CCC(=O)C4)[C@H]3CC[C@@]21C [TIBOLONE] | Not Active | Not Active | Not Active | Not Active | Not Active | Not Active | Not Active | Not Active | Not Active | – | – | – | – | – | – | – | – | –
12 | CC[C@@]1(O)C(=O)OCc2c1cc1n(c2=O)Cc2cc3c(CN(C)C)c(O)ccc3nc2-1 [TOPOTECAN] | Not Active | Not Active | Not Active | Not Active | Not Active | Not Active | Not Active | Not Active | Not Active | – | – | – | – | – | – | – | – | –
13 | CC1(C)[C@H](C(=O)O)N2C(=O)C[C@H]2S1(=O)=O [SULBACTAM] | Not Active | Not Active | Not Active | Not Active | Not Active | Not Active | Not Active | Not Active | Not Active | – | – | – | – | – | – | – | – | –
14 | CCN(CC)N=O [N-NITROSODIETHYLAMINE] | Not Active | Not Active | Not Active | Not Active | Not Active | Not Active | Not Active | Not Active | Not Active | – | – | – | – | – | – | – | – | –
15 | C[C@]12CCC(=O)C[C@@H]1CC[C@@H]1[C@@H]2CC[C@]2(C)[C@@H](O)CC[C@@H]12 [STANOLONE] | Not Active | Not Active | Not Active | Not Active | Not Active | Not Active | Not Active | Not Active | Not Active | – | – | – | – | – | – | – | – | –
16 | Cc1cccc(C)c1NC(=O)C(C)N (centres undefined) [TOCAINIDE] | Not Active | Not Active | Not Active | Not Active | Not Active | Not Active | Not Active | Not Active | Not Active | – | – | – | – | – | – | – | – | –
17 | LEAD(IV) ACETATE | Not Active | Not Active | Not Active | Not Active | Not Active | Not Active | – | Not Active | Not Active | – | – | Not Active | Not Active | Not Active | Not Active | 5.48 | Not Active | Not Active
18 | CC#C[C@]1(O)CC[C@H]2[C@@H]3CCC4=CC(=O)CCC4=C3[C@@H](c3ccc(N(C)C)cc3)C[C@@]21C [MIFEPRISTONE] | Not Active | Not Active | Not Active | Not Active | Not Active | Not Active | – | Not Active | Not Active | – | 4.67 | – | – | – | – | – | – | –
19 | CS(=O)(=O)c1ccc(C2=C(c3ccccc3)C(=O)OC2)cc1 [ROFECOXIB] | Not Active | Not Active | Not Active | Not Active | Not Active | Not Active | Not Active | Not Active | Not Active | – | – | – | – | – | – | – | – | –
20 | COC(=O)Nc1nc2ccc(C(=O)c3ccccc3)cc2[nH]1 [MEBENDAZOLE] | Not Active | Not Active | Not Active | Not Active | Not Active | Not Active | Not Active | Not Active | Not Active | – | – | – | – | – | – | – | – | –
21 | CC(O)C(=O)O (centres undefined) [LACTIC ACID] | Not Active | Not Active | Not Active | Not Active | Not Active | Not Active | Not Active | Not Active | Not Active | – | – | – | – | – | – | – | – | –
22 | Cc1cc2c(s1)Nc1ccccc1N=C2N1CCN(C)CC1 [OLANZAPINE] | Not Active | Not Active | Not Active | Not Active | – | – | Not Active | Not Active | Not Active | – | – | – | – | – | – | – | – | –
23 | CNCCCC12CCC(c3ccccc31)c1ccccc12 [MAPROTILINE] | Not Active | Not Active | Not Active | Not Active | – | – | Not Active | Not Active | Not Active | – | – | – | – | – | – | – | – | –
24 | CN(C)CCC=C1c2ccccc2COc2ccccc21 [DOXEPIN] | – | Not Active | Not Active | Not Active | – | – | Not Active | Not Active | Not Active | – | – | – | – | – | – | – | – | –
